According to patent US8822517B2, “Arylosulfonamides for the treatment of CNS diseases” (Adamed SP. Z O.O., priority 2010, dated 2014):

Legend:
[1] = target: T1, serotoninergic receptor 5-HT2C (Homo sapiens, UniProt P28335); assay: Binding assay 5-HT2C (h), [3H]mesulergine, HEK-293 cells; settings: read-out: 5-HT2C [%]
T1 construct: expressed in transfected cells; host or cells: HEK-293 cells
T1 sequence (P28335 33-458): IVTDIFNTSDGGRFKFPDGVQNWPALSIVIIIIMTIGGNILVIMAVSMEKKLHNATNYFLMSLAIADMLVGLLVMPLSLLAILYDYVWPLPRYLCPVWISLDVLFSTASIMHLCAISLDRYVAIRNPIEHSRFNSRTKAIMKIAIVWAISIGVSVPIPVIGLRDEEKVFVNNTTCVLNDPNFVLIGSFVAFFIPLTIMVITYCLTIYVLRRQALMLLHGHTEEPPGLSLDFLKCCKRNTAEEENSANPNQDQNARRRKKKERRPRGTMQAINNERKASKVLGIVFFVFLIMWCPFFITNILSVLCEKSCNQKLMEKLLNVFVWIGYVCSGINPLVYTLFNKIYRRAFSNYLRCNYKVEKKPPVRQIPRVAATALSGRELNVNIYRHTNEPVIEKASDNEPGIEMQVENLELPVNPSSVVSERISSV
Procedure, shortened: (§1)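 Radioligand displacement at 1×10^−6 M compound, with detection by scintillation counting. Nonspecific signal is measured using an excess of non-radioactive ligand.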

[2] = target: T2, serotoninergic 5-HT6 receptor (Homo sapiens, UniProt P50406); assay: Cellular functional assay, serotoninergic 5-HT6 receptor (agonism/antagonism); assay type: cell-based; settings: for activation at 1 µM: agonist effect, percent of control specific agonist response, compounds tested at 1×10^−6M, read-out: 5-HT6-ag [%]; for inhibition at 1 µM: read-out: 5-HT6-antag. [%]
Protocol: (§2) The compounds were tested at the concentration of 1×10^−6M.
(§3) In the Tables ag refers to agonism, and antag to antagonism).

adrenergic α2C receptor = target: T3, adrenergic α2C receptor (Homo sapiens, UniProt P18825); assay: Cellular functional assay, adrenergic α2C receptor (agonism/antagonism); assay type: cell-based; settings: for activation at 1 µM: agonist effect, percent of control specific agonist response, compounds tested at 1×10^−6M, read-out: α2C −ag [%]; for inhibition at 1 µM: read-out: α2C −antag. [%]
T3 sequence (P18825 1-462): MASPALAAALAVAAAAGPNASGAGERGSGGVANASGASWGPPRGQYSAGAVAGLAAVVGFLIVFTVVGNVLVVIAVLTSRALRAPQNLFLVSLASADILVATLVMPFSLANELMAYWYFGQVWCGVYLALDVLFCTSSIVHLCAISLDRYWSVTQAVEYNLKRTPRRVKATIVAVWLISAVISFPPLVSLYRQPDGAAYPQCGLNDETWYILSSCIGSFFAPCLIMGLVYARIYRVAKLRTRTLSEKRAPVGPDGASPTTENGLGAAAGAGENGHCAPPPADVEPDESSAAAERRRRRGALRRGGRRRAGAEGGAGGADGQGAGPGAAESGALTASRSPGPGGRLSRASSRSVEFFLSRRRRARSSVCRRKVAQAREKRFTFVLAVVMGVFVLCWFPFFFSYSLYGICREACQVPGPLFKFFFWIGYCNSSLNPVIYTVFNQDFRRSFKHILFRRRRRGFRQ
Protocol: as §2, §3

dopaminergic D3 receptor = dopaminergic D3 receptor (Homo sapiens, UniProt P35462); assay: Binding assay D3 (h), [3H]methyl-spiperone, CHO cells; design: expressed in transfected cells; host or cells: CHO cells; settings: read-out: D3 [%]
Procedure, shortened: as §1

[3] = target: T2, serotoninergic 5-HT6 receptor; assay: Binding assay 5-HT6 (h), [3H]LSD, CHO cells; design: expressed in transfected cells; host or cells: CHO cells; settings: read-out: 5-HT6
Procedure, shortened: as §1

[4] = target: T4, serotoninergic 5-HT1A receptor (Homo sapiens, UniProt P08908); assay: Binding assay 5-HT1A (h), [3H]8-OH-DPAT, HEK-293 cells; design: expressed in transfected cells; host or cells: HEK-293 cells; settings: read-out: 5-HT1A
T4 sequence (P08908 1-422): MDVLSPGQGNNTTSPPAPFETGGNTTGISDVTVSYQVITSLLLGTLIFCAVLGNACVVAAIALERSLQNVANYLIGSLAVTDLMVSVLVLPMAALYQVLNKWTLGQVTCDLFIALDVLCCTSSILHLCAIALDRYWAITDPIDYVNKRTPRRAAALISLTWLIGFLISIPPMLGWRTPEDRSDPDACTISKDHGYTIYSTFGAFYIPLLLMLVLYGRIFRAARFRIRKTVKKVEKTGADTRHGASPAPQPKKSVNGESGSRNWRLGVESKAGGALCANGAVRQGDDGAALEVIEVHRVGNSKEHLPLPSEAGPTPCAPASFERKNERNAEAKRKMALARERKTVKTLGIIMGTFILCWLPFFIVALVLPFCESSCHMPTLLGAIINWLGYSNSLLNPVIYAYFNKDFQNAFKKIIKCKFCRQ
Procedure, shortened: as §1

[5] = target: T4, serotoninergic 5-HT1A receptor; assay: Cellular functional assay, serotoninergic 5-HT1A receptor (agonism/antagonism); assay type: cell-based; settings: for inhibition at 1 µM: CHO, read-out: 5-HT1A-antag. [%]; for activation at 1 µM: agonist effect, percent of control specific agonist response (100 nM 8-OH-DPAT for control), 1×10^−6 M, 5-HT1A (h), CHO cells, read-out: 5-HT1A-ag [%]
Protocol: as §2, §3

T2 sequence (P50406 whole entry): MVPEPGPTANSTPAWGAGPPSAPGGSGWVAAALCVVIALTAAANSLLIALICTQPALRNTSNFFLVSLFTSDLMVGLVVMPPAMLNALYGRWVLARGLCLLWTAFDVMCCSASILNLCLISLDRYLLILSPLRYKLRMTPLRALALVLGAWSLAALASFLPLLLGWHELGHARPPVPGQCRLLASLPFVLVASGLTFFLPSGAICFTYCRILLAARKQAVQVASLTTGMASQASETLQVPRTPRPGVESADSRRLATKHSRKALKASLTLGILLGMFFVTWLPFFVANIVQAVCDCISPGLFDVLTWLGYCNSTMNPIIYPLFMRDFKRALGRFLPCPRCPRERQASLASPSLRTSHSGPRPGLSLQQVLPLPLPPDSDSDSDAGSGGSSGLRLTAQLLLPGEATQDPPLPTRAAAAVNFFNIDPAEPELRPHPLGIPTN
Sequence of dopaminergic D3 receptor (P35462 whole entry): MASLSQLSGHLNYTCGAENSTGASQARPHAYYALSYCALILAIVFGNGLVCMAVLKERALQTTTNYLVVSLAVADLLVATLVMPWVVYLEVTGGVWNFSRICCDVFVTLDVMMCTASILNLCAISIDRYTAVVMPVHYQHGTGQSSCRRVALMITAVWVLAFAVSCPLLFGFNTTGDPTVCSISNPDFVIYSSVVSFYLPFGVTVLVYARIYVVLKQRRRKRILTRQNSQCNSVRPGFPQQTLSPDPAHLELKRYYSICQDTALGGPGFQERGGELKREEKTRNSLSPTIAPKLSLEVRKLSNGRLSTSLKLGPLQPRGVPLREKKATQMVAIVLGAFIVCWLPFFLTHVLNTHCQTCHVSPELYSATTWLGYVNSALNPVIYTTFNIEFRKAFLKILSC

| SMILES | inhibition at 1 µM [1] | activation at 1 µM [2] | inhibition at 1 µM [2] | activation at 1 µM (adrenergic α2C receptor) | inhibition at 1 µM (adrenergic α2C receptor) | inhibition at 1 µM (dopaminergic D3 receptor) | inhibition at 1 µM [3] | inhibition at 1 µM [4] | inhibition at 1 µM [5] | activation at 1 µM [5] |
| --- | --- | --- | --- | --- | --- | --- | --- | --- | --- | --- |
| O=S(=O)(NCCCCN1CCN(c2noc3ccccc23)CC1)c1cccc2ccccc12 [Compound 13, N-(4-(4-(1,2-Benzoxazol-3-yl)piperazin-1-yl)butyl)naphthalene-1-sulphonamide] | 34% | 1% | 56% | -7% | 18% | 92% | 96% | 89% | – | – |
| O=c1[nH]c2ccc(S(=O)(=O)NCCCCN3CCN(c4noc5ccccc45)CC3)cc2o1 [Compound 16, N-(4-(4-(1,2-Benzoxazol-3-yl)piperazin-1-yl)butyl)-2-oxo-3H-1,3-benzoxazole-6-sulphonamide] | 53% | 0% | 50% | -7% | 9% | 99% | 94% | 93% | 91% | -14% |
| O=S(=O)(NCCCCN1CCN(c2cccc3[nH]ccc23)CC1)c1ccc2ccccc2c1 [Compound 26, N-{4-[4-(1H-Indol-4-yl)piperazin-1-yl]butyl}naphthalene-2-sulphonamide] | 19% | – | – | 25% | 53% | 98% | 51% | 100% | 22% | 67% |
| O=S(=O)(NCCCCN1CCN(c2cccc3[nH]ccc23)CC1)c1ccccc1 [Compound 27, N-{4-[4-(1H-Indol-4-yl)piperazin-1-yl]butyl}benzenesulphonamide] | -1% | – | – | 3% | 31% | 96% | 34% | 99% | 48% | 56% |
| O=S(=O)(NCCCCN1CCN(c2cccc3[nH]ccc23)CC1)c1cccc(F)c1 [Compound 28, 3-Fluoro-N-{4-[4-(1H-indol-4-yl)piperazin-1-yl]butyl}benzenesulphonamide] | 6% | 0% | 53% | 4% | 27% | 99% | 98% | 100% | 27% | 63% |
| O=S(=O)(NCCCCN1CCN(c2cccc3[nH]ccc23)CC1)c1cc2ccccc2s1 [Compound 33, N-{4-[4-(1H-Indol-4-yl)piperazin-1-yl]butyl}-1-benzothiophene-2-sulphonamide] | 27% | – | – | -1% | 6% | 101% | 42% | 100% | 24% | 63% |
